Laboratory results as given in ChEMBL document CHEMBL1141707, “Modification of the side chain of micromolide, an anti-tuberculosis natural product” (2008).
Converted amounts (≈) assume the structure as drawn.

system: Mycobacterium tuberculosis; test: Antitubercular activity against Mycobacterium tuberculosis H37Rv after 4 days by microplate alamar blue assay; type: functional; conditions: 96 h

SMILES | MIC
CCCCCCC1=NOC(CCCC2CCC(=O)O2)C1 (configuration not stated) | > 128 µM
CCCCCCCC/C=C\CCCCC1CCC(=O)O1 (racemic) | 6.9 µM
O=C1CCC(CCCCC2CC(C(=O)O)=NO2)O1 (configuration not stated) | > 128 µM
CCCCCCCCNC(=O)CCCCC1CCC(=O)O1 (configuration not stated) | > 128 µM
CCOC(=O)C1=NOC(CCCCC2CCC(=O)O2)C1 (configuration not stated) | > 128 µM
CCCCCCCCCCCCCCC1CCC(=O)O1 (configuration not stated) | > 128 µM
CCCCCCCC1=NOC(CCCC2CCC(=O)O2)C1 (configuration not stated) | > 128 µM
CCCCCCCCC(=O)NCCCCC1CCC(=O)O1 (configuration not stated) | > 128 µM
CCCCCCCC(=O)NCCCCC1CCC(=O)O1 (configuration not stated) | > 128 µM
CCCCCCC1=NOC(CCCCC2CCC(=O)O2)C1 (configuration not stated) | > 128 µM
O=C1CCC(CCCCC2CC(C(=O)NCc3ccccc3)=NO2)O1 (configuration not stated) | > 128 µM
CCCCCCC/C=C\CCCCC1CCC(=O)O1 (configuration not stated) | 14.7 µM
CCOC(=O)c1cc(CCCCC2CCC(=O)O2)on1 (configuration not stated) | > 128 µM
O=C1CCC(CCCCC2CC(C(=O)OCc3ccccc3)=NO2)O1 (configuration not stated) | > 128 µM
CCCCCCCc1cc(CCCCC2CCC(=O)O2)on1 (configuration not stated) | 63.4 µM
CCCCCCCCC#CCCCCC1CCC(=O)O1 (configuration not stated) | 44 µM
CCCCCCCC1=NOC(CCCCC2CCC(=O)O2)C1 (configuration not stated) | > 128 µM
CCCCCCCC/C=C\CCCC[C@@H]1CCC(=O)O1 | 1.5 µg/mL
CCCCCCNC(=O)C1=NOC(CCCCC2CCC(=O)O2)C1 (configuration not stated) | > 128 µM
CC(C)(C)OC(=O)C1=NOC(CCCCC2CCC(=O)O2)C1 (configuration not stated) | > 128 µM
CCCCCCOC(=O)C1=NOC(CCCCC2CCC(=O)O2)C1 (configuration not stated) | 63.1 µM
CCCCCCCC#CCCCCC1CCC(=O)O1 (configuration not stated) | 70.2 µM
CCCCCCNC(=O)c1cc(CCCCC2CCC(=O)O2)on1 (configuration not stated) | > 128 µM
CCCCCCCC/C=C/CCCCC1CCC(=O)O1 (configuration not stated) | 19.7 µM
CCN(CC)C(=O)C1=NOC(CCCCC2CCC(=O)O2)C1 (configuration not stated) | > 128 µM

system: Mycobacterium tuberculosis; test: Antitubercular activity against Mycobacterium tuberculosis H37Rv by low oxygen recovery assay; type: functional; conditions: not given

SMILES | MIC [µM]
CCCCCCCC/C=C\CCCCC1CCC(=O)O1 (racemic) | 124 (≈ 34.8 µg/mL)
CCCCCCCCCCCCCCC1CCC(=O)O1 (configuration not stated) | > 128
